{"source": "patent US20120041185A1", "about": "“dTDP-BETA-D-FUCOFURANOSE, ITS PREPARATION METHOD AND USE” (TIANJIN BIOCHIP TECHNOLOGY CORPORATION, priority 2007, published 2012)", "key": {"[1]": {"molecular_target": "T1, Fcf2 (recombinant dTDP-D-Glcfucofuranose mutase) (Escherichia coli, UniProt Q6E7F1)", "T1 construct": "The entire ORF encodes a protein composed of 377 amino acids; His6 (N); made in house; host or cells: E. coli BL21", "T1 sequence (Q6E7F1 whole entry)": "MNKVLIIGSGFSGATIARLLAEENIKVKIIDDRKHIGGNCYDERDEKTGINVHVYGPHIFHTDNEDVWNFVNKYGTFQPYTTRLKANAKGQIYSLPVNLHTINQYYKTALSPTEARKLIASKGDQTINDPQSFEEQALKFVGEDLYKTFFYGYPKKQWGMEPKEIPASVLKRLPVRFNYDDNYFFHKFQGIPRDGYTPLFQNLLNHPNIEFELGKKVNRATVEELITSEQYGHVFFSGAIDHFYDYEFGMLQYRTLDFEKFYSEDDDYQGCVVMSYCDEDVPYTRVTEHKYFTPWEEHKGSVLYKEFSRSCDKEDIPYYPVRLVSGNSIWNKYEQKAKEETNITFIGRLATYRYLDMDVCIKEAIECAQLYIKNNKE", "assay": "Divalent cation requirements of Fcf2 (effects of cations on enzyme activity)", "format": "biochemical, E. coli O52", "details": "for Transformation rate (%): in the presence of 5 mM divalent ion, 9.5 without ion", "method": "25 μl reactions in 0.5 ml centrifugal tube contain 2 mM dTDP-D-fucose, 50 mM Tris-HCl buffer (pH 7.4) 5 mM divalent ion chloride and 3.9 μM recombinant dTDP-D-Glcfucofuranose mutase protein purified in example 2. The reactions are proceeded at certain temperature for 3 hours. Then add chloroform of equal volume to extract protein. The aqueous phase is detected by Beckman Coulter P/ACE MDQ capillary electrophoresis."}, "[2]": {"system": "Fcf1 (recombinant dTDP-D-GIcO reductase)", "assay": "Divalent cation requirements of Fcf1 (effects of cations on enzyme activity)", "format": "biochemical, E. coli O52", "details": "for Transformation rate (%): in the presence of 5 mM divalent ion chloride, 100 without ion; for influence on conversion ratio / inhibition to enzyme activity: 5 mM divalent ion chloride", "method": "20 μl reactions in 0.5 ml centrifugal tube contain 2 mM dTDP-D-Glco, 3 mM NADPH, 50 mM Tris-HCl buffer (pH7.4), 5 mM divalent ion chloride and 0.25 μM recombinant dTDP-D-GIcO reductase protein purified in example 2. The reactions are proceeded at certain temperatures for 2 hours. Then add chloroform of equal volume to extract protein. The aqueous phase is detected by Beckman Coulter P/ACE MDQ capillary electrophoresis."}}, "data": [{"smiles": "[Ca+2].[Cl-].[Cl-]", "note": "[Ca^2+, CaCl2]", "values": [{"measurement": "Transformation rate (%)", "setting": "[1]", "result": 9.6, "unit": "%"}, {"measurement": "Transformation rate (%)", "setting": "[2]", "result": 98.1, "unit": "%"}]}, {"smiles": "[Cl-].[Cl-].[Co+2]", "note": "[Co^2+, CoCl2]", "values": [{"measurement": "Transformation rate (%)", "setting": "[1]", "result": 8.8, "unit": "%"}, {"measurement": "Transformation rate (%)", "setting": "[2]", "result": 89.2, "unit": "%"}]}, {"smiles": "[Cl][Cu][Cl]", "note": "[Cu^2+, CuCl2]", "values": [{"measurement": "inhibition to enzyme activity", "setting": "[1]; 5 mM divalent ion", "result": "obvious inhibition"}, {"measurement": "Transformation rate (%)", "setting": "[1]", "result": 0, "unit": "%"}, {"measurement": "influence on conversion ratio / inhibition to enzyme activity", "setting": "[2]", "result": "highest inhibition"}, {"measurement": "Transformation rate (%)", "setting": "[2]", "result": 11.8, "unit": "%"}]}, {"smiles": "[Cl][Fe][Cl]", "note": "[Fe^2+, FeCl2]", "values": [{"measurement": "Transformation rate (%)", "setting": "[1]", "result": 9.1, "unit": "%"}, {"measurement": "Transformation rate (%)", "setting": "[2]", "result": 90.5, "unit": "%"}]}, {"smiles": "[Cl-].[Cl-].[Mg+2]", "note": "[Mg^2+, MgCl2]", "values": [{"measurement": "Transformation rate (%)", "setting": "[1]", "result": 9.7, "unit": "%"}, {"measurement": "influence on conversion ratio / inhibition to enzyme activity", "setting": "[2]", "result": "no influence"}, {"measurement": "Transformation rate (%)", "setting": "[2]", "result": 100, "unit": "%"}]}, {"smiles": "[Cl][Mn][Cl]", "note": "[Mn^2+, MnCl2]", "values": [{"measurement": "Transformation rate (%)", "setting": "[1]", "result": 5.4, "unit": "%"}, {"measurement": "influence on conversion ratio / inhibition to enzyme activity", "setting": "[2]", "result": "no influence"}, {"measurement": "Transformation rate (%)", "setting": "[2]", "result": 100, "unit": "%"}]}]}
